Assay results published in patent publication US10787450B2 (BRISTOL-MYERS SQUIBB COMPANY, priority 2016, dated 2020).
Counter-ions that a name gives are not always drawn.

These molecules were tested against ROCK2 (Homo sapiens (Human), UniProt O75116) (assay: ROCK2 kinase inhibition assay (FITC peptide substrate, LABCHIP 3000 Reader)). Conditions: 5 μM ATP, 1.5 μM peptide substrate.
Sequence of ROCK2 (O75116 whole entry, species assumed): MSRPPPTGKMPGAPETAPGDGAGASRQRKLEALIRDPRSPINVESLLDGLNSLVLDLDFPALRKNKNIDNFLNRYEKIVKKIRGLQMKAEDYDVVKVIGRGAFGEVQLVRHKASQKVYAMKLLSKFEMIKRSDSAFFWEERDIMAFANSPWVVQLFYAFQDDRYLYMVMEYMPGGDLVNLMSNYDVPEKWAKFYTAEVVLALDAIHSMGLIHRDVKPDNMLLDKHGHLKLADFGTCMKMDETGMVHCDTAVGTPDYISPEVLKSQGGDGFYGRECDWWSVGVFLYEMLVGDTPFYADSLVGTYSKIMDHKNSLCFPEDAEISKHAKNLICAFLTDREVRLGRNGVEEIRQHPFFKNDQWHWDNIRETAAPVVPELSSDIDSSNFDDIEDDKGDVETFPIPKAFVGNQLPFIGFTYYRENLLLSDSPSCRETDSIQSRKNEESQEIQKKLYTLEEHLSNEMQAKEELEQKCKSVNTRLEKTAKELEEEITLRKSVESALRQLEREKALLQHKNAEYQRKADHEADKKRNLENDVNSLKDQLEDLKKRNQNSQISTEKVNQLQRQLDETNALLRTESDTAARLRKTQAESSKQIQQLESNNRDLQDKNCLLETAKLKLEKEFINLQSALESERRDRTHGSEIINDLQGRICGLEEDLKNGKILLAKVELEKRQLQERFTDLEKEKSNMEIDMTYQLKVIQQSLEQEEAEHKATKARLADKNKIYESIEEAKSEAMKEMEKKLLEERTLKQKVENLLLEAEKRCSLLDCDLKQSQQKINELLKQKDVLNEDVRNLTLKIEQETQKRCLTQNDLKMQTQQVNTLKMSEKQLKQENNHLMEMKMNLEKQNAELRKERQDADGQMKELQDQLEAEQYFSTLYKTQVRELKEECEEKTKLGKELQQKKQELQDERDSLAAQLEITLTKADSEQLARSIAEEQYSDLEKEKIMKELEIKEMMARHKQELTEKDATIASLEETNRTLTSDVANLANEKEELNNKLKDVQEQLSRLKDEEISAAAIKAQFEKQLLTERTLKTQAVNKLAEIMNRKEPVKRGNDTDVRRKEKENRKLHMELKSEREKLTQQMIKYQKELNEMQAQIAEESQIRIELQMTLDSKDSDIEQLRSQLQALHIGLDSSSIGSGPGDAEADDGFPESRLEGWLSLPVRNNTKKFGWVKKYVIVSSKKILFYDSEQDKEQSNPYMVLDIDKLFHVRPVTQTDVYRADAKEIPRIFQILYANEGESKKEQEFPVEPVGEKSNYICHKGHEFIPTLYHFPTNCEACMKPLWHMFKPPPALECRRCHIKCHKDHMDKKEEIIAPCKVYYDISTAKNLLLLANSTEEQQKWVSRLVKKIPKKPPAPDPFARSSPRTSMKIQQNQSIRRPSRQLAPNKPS
Format: biochemical
Method: The effectiveness of compounds of the present invention as ROCK inhibitors can be determined in a 30 μL assay containing 20 mM HEPES, pH 7.5, 20 mM MgCl2, 0.015% Brij-35, 4 mM DTT, 5 μM ATP and 1.5 μM peptide substrate (FITC-AHA-AKRRRLSSLRA-OH) (SEQ ID NO. 1). Compounds were dissolved in DMSO so that the final concentration of DMSO was <2%, and the reaction was initiated with Rho kinase variants. After incubation, the reaction was terminated by the addition of EDTA and the phosphorylated and non-phosphorylated peptides separated using a LABCHIP® 3000 Reader (Caliper Life Sciences). […] Compounds were tested in dose-response format, and the inhibition of kinase activity was calculated at each concentration of compound. The inhibition data were fit using a curve-fitting program to determine the IC50; i.e., the concentration of compound required to inhibit 50% of kinase activity.
Representative examples were tested in the ROCK2 assay described above and found having ROCK2 inhibitory activity.
With `CC(C)CNC(=O)c1cccc(CN2C(=O)N(c3ccc(-c4cn[nH]c4)cc3)CC23CCOCC3)c1` [Example 35, 3-((3-(4-(1H-pyrazol-4-yl)phenyl)-2-oxo-8-oxa-1,3-diazaspiro[4.5]decan-1-yl)methyl)-N-isobutylbenzamide] the IC50 was < 3 nM. In the case of `O=C(NCCO)c1cccc(CN2C(=O)N(c3ccc(-c4cn[nH]c4)cc3)CC23CCOCC3)c1` [Example 36, 3-((3-(4-(1H-pyrazol-4-yl)phenyl)-2-oxo-8-oxa-1,3-diazaspiro[4.5]decan-1-yl)methyl)-N-(2-hydroxyethyl)benzamide], the IC50 is reported as < 3 nM. `O=C(NCC1CC1)c1cccc(CN2C(=O)N(c3ccc(-c4cn[nH]c4)cc3)CC23CCOCC3)c1` [Example 37, 3-((3-(4-(1H-pyrazol-4-yl)phenyl)-2-oxo-8-oxa-1,3-diazaspiro[4.5]decan-1-yl)methyl)-N-(cyclopropylmethyl)benzamide] was tested, and the IC50 was < 3 nM. With `O=C(NCC(F)(F)F)c1cccc(CN2C(=O)N(c3ccc(-c4cn[nH]c4)cc3)CC23CCOCC3)c1` [Example 38, 3-((3-(4-(1H-pyrazol-4-yl)phenyl)-2-oxo-8-oxa-1,3-diazaspiro[4.5]decan-1-yl)methyl)-N-(2,2,2-trifluoroethyl)benzamide] the IC50 was < 3 nM. Molecule `CC1(NC(=O)c2cccc(CN3C(=O)N(c4ccc(-c5cn[nH]c5)cc4)CC34CCOCC4)c2)CC1` [Example 39, 3-((3-(4-(1H-pyrazol-4-yl)phenyl)-2-oxo-8-oxa-1,3-diazaspiro[4.5]decan-1-yl)methyl)-N-(1-methylcyclopropyl)benzamide] has an IC50 of 3 to 30 nM. In the case of `O=C(NC1CCOC1)c1cccc(CN2C(=O)N(c3ccc(-c4cn[nH]c4)cc3)CC23CCOCC3)c1` (centres unmarked) [Example 40, 3-((3-(4-(1H-pyrazol-4-yl)phenyl)-2-oxo-8-oxa-1,3-diazaspiro[4.5]decan-1-yl)methyl)-N-(tetrahydrofuran-3-yl)benzamide], the IC50 is reported as < 3 nM. `CCN(C)C(=O)c1cccc(CN2C(=O)N(c3ccc(-c4cn[nH]c4)cc3)CC23CCOCC3)c1` [Example 41, 3-((3-(4-(1H-pyrazol-4-yl)phenyl)-2-oxo-8-oxa-1,3-diazaspiro[4.5]decan-1-yl)methyl)-N-ethyl-N-methylbenzamide] was tested, and the IC50 was 30 to 250 nM. `CN(C)C(=O)c1cccc(CN2C(=O)N(c3ccc(-c4cn[nH]c4)cc3)CC23CCOCC3)c1` [Example 42, 3-((3-(4-(1H-pyrazol-4-yl)phenyl)-2-oxo-8-oxa-1,3-diazaspiro[4.5]decan-1-yl)methyl)-N,N-dimethylbenzamide] showed an IC50 of 30 to 250 nM. `O=C(c1cccc(CN2C(=O)N(c3ccc(-c4cn[nH]c4)cc3)CC23CCOCC3)c1)N1CC(F)C1` [Example 43, 3-(4-(1H-pyrazol-4-yl)phenyl)-1-(3-(3-fluoroazetidine-1-carbonyl)benzyl)-8-oxa-1,3-diazaspiro[4.5]decan-2-one] was tested, and the IC50 was 250 to 3000 nM. With `O=C(c1cccc(CN2C(=O)N(c3ccc(-c4cn[nH]c4)cc3)CC23CCOCC3)c1)N1CC[C@H](O)C1` [Example 44, (S)-3-(4-(1H-pyrazol-4-yl)phenyl)-1-(3-(3-hydroxypyrrolidine-1-carbonyl)benzyl)-8-oxa-1,3-diazaspiro[4.5]decan-2-one] the IC50 was 30 to 250 nM. For `CN(C(=O)c1cccc(CN2C(=O)N(c3ccc(-c4cn[nH]c4)cc3)CC23CCOCC3)c1)C1CC1` [Example 45, 3-((3-(4-(1H-pyrazol-4-yl)phenyl)-2-oxo-8-oxa-1,3-diazaspiro[4.5]decan-1-yl)methyl)-N-cyclopropyl-N-methylbenzamide], the IC50 was < 3 nM. `CN(C)C1CN(C(=O)c2cccc(CN3C(=O)N(c4ccc(-c5cn[nH]c5)cc4)CC34CCOCC4)c2)C1` [Example 46, 3-(4-(1H-pyrazol-4-yl)phenyl)-1-(3-(3-(dimethylamino)azetidine-1-carbonyl)benzyl)-8-oxa-1,3-diazaspiro[4.5]decan-2-one] gave an IC50 of 3 to 30 nM. For `O=C(c1cccc(CN2C(=O)N(c3ccc(-c4cn[nH]c4)cc3)CC23CCOCC3)c1)N1CCC(CO)CC1` [Example 47, 3-(4-(1H-pyrazol-4-yl)phenyl)-1-(3-(4-(hydroxymethyl)piperidine-1-carbonyl)benzyl)-8-oxa-1,3-diazaspiro[4.5]decan-2-one], the IC50 was 3 to 30 nM. Work on `COc1cccc(CN2C(=O)N(c3ccc(-c4cn[nH]c4)cc3)CC23CCN(C(=O)OC(C)(C)C)CC3)c1` [Example 48, tert-butyl 3-(4-(1H-pyrazol-4-yl)phenyl)-1-(3-methoxybenzyl)-2-oxo-1,3,8-triazaspiro[4.5]decane-8-carboxylate] yielded an IC50 of 3 to 30 nM. Molecule `Cc1c(F)cccc1CN1C(=O)N(c2ccc(-c3cn[nH]c3)cc2)CC12CCN(C(=O)OC(C)(C)C)CC2` [Example 49, tert-butyl 3-(4-(1H-pyrazol-4-yl)phenyl)-1-(3-fluoro-2-methylbenzyl)-2-oxo-1,3,8-triazaspiro[4.5]decane-8-carboxylate] has an IC50 of 3 to 30 nM. For `COc1cccc(CN2C(=O)N(c3ccc(-c4cn[nH]c4)cn3)CC23CCN(C(C)=O)CC3)c1` [Example 50, 3-(5-(1H-pyrazol-4-yl)pyridin-2-yl)-8-acetyl-1-(3-methoxybenzyl)-1,3,8-triazaspiro[4.5]decan-2-one], the IC50 was 3 to 30 nM. `COc1cccc(CN2C(=O)N(c3ccc(-c4cn[nH]c4)cn3)CC23CCN(C(=O)OC(C)(C)C)CC3)c1` [Example 51, tert-butyl 3-(5-(1H-pyrazol-4-yl)pyridin-2-yl)-1-(3-methoxybenzyl)-2-oxo-1,3,8-triazaspiro[4.5]decane-8-carboxylate] gave an IC50 of 3 to 30 nM. Work on `COc1cccc(CN2C(=O)N(c3ccc(-c4cn[nH]c4)c(C)n3)CC23CCN(C(=O)OC(C)(C)C)CC3)c1` [Example 52, tert-butyl 1-(3-methoxybenzyl)-3-(6-methyl-5-(1H-pyrazol-4-yl)pyridin-2-yl)-2-oxo-1,3,8-triazaspiro[4.5]decane-8-carboxylate] yielded an IC50 of 30 to 250 nM. Work on `CCc1nc(N2CC3(CCN(C(=O)OC(C)(C)C)CC3)N(Cc3cccc(OC)c3)C2=O)ccc1-c1cn[nH]c1` [Example 53, tert-butyl 3-(6-ethyl-5-(1H-pyrazol-4-yl)pyridin-2-yl)-1-(3-methoxybenzyl)-2-oxo-1,3,8-triazaspiro[4.5]decane-8-carboxylate] yielded an IC50 of 30 to 250 nM. `COc1cccc(CN2C(=O)N(c3ccc(-c4cn[nH]c4)c(OC)n3)CC23CCN(C(=O)OC(C)(C)C)CC3)c1` [Example 54, tert-butyl 3-(6-methoxy-5-(1H-pyrazol-4-yl)pyridin-2-yl)-1-(3-methoxybenzyl)-2-oxo-1,3,8-triazaspiro[4.5]decane-8-carboxylate] was tested, and the IC50 was < 3 nM. `COc1nc(N2CC3(CCN(C(=O)OC(C)(C)C)CC3)N(Cc3cccc(F)c3C)C2=O)ccc1-c1cn[nH]c1` [Example 55, tert-butyl 1-(3-fluoro-2-methylbenzyl)-3-(6-methoxy-5-(1H-pyrazol-4-yl)pyridin-2-yl)-2-oxo-1,3,8-triazaspiro[4.5]decane-8-carboxylate] was tested, and the IC50 was 3 to 30 nM. `COc1cccc(CN2C(=O)N(c3ncc(-c4cn[nH]c4)c(OC)n3)CC23CCN(C(=O)OC(C)(C)C)CC3)c1` [Example 56, tert-butyl 3-(4-methoxy-5-(1H-pyrazol-4-yl)pyrimidin-2-yl)-1-(3-methoxybenzyl)-2-oxo-1,3,8-triazaspiro[4.5]decane-8-carboxylate] showed an IC50 of 3 to 30 nM. With `COc1cccc(CN2C(=O)N(c3ccc(-c4cn[nH]c4)cc3)CC23CCNCC3)c1` [Example 57, 3-(4-(1H-pyrazol-4-yl)phenyl)-1-(3-methoxybenzyl)-1,3,8-triazaspiro[4.5]decan-2-one] the IC50 was < 3 nM. With `COc1cc(F)cc(CN2C(=O)N(c3ccc(-c4cn[nH]c4)cc3)CC23CCNCC3)c1` [Example 58, 3-(4-(1H-pyrazol-4-yl)phenyl)-1-(3-fluoro-5-methoxybenzyl)-1,3,8-triazaspiro[4.5]decan-2-one, TFA] the IC50 was < 3 nM. For `COc1cc(CN2C(=O)N(c3ccc(-c4cn[nH]c4)cc3)CC23CCNCC3)ccc1F` [Example 59, 3-(4-(1H-pyrazol-4-yl)phenyl)-1-(4-fluoro-3-methoxybenzyl)-1,3,8-triazaspiro[4.5]decan-2-one], the IC50 was < 3 nM. `O=C1N(c2ccc(-c3cn[nH]c3)cc2)CC2(CCNCC2)N1Cc1cccc(OCC2CC2)c1` [Example 60, 3-(4-(1H-pyrazol-4-yl)phenyl)-1-(3-(cyclopropylmethoxy)benzyl)-1,3,8-triazaspiro[4.5] decan-2-one, TFA] showed an IC50 of 3 to 30 nM. `O=C1N(c2ccc(-c3cn[nH]c3)cc2)CC2(CCNCC2)N1Cc1cccc(OC(F)F)c1` [Example 61, 3-(4-(1H-pyrazol-4-yl)phenyl)-1-(3-(difluoromethoxy)benzyl)-1,3,8-triazaspiro[4.5]decan-2-one] was tested, and the IC50 was 3 to 30 nM. `O=C1N(c2ccc(-c3cn[nH]c3)cc2)CC2(CCNCC2)N1Cc1cccc(O)c1` [Example 62, 3-(4-(1H-pyrazol-4-yl)phenyl)-1-(3-hydroxybenzyl)-1,3,8-triazaspiro[4.5]decan-2-one] was tested, and the IC50 was < 3 nM. With `O=C1N(c2ccc(-c3cn[nH]c3)cc2)CC2(CCNCC2)N1Cc1ccccc1F` [Example 63, 3-(4-(1H-pyrazol-4-yl)phenyl)-1-(2-fluorobenzyl)-1,3,8-triazaspiro[4.5]decan-2-one] the IC50 was 3 to 30 nM. `O=C1N(c2ccc(-c3cn[nH]c3)cc2)CC2(CCNCC2)N1Cc1cccc(F)c1F` [Example 64] was tested, and the IC50 was 3 to 30 nM. With `O=C1N(c2ccc(-c3cn[nH]c3)cc2)CC2(CCNCC2)N1CC1CCCCC1` [Example 67] the IC50 was 3 to 30 nM. Molecule `O=C1N(c2ccc(-c3cn[nH]c3)cc2)CC2(CCNCC2)N1Cc1cc(F)cc(F)c1` [Example 68] has an IC50 of 3 to 30 nM.
